This note sets out measurements from patent publication US12285465B2, “Combined treatment of primary central nervous system lymphoma” (FONDAZIONE CENTRO SAN RAFFAELE, priority 2018, dated 2025).

The test system of data set [1] is BBB permeability in lymphomatous lesions and perilesional area. Briefly: BBB permeability assessed by DCE-MRI (Ktrans). Type of data set: in vivo, human. As to conditions: tumoral/peritumoral areas. As for the experimental part:
Variations induced by NGR-hTNF in the BBB permeability at the level of the lymphomatous lesions, areas surrounding the tumor (perilesional area) and in the normal-appearing brain parenchyma were assessed by DCE-MRI. DCE acquisition followed a standard protocol^28 that included also conventional T1, T2, Flair, DWI and Dynamic Susceptibility Contrast Perfusion (DSC) sequences. […] In cases of multiple lesions, the largest one was considered. Post-processing of DCE-MRI was performed using Olea software (La Ciotat, France); all dynamic images were corrected for motion artifacts and co-registered to a volumetric post-contrast T1 sequences. Results were expressed as Ktrans values normalized using contralateral white matter. Ktrans obtained after the 2nd course (measured after NGR-hTNF infusion) were compared with those obtained after the 1st course (without NGR-hTNF) to establish the effect of TNF on BBB permeabilization. Statistically significance was assessed by Wilcoxon matched pairs test.

A short description of data set [2]: INGRID phase II trial: toxicity graded by NCI-NCIC CTC version 3.0. Type of data set: in vivo. As to conditions: of 132 delivered courses; fever, chills, arterial hypertension. As for the experimental part: Treatment side effects were assessed separately for each chemotherapy course and graded according to the NCI-NCIC CTC version 3·0^19. The worst toxicity per organ, per patient was considered. Periodic specialist controls, ECG, troponin levels determination, and echocardiography were performed before every treatment course to exclude cardiac toxicity. The impact of treatment on cognitive functions was not assessed by ad hoc tests.
Duration of response, PFS, OS, and tolerability were the secondary endpoints. Duration of response was defined as the time from the first assessment that documents the response to the date of relapse, date of death from any cause or date of the last visit of follow-up. PFS was defined as the interval between the time of entry onto trial and failure (relapsing or progressive disease), death from any cause or date of the last visit of follow-up. OS was defined as the time from entry onto trial until death from any cause or date of the last visit of follow-up. Tolerability was defined by of grade 3-4 AEs according to NCI CTCAE^19.

Entries after “also recorded” stand apart in the source; their conditions may differ.

With “NGR-hTNF: genetically engineered protein consisting of CNGRCG fused to the N-terminus of human tumor necrosis factor alpha (SEQ ID No. 1), expressed in E. coli”, the “vascular permeability (DCE-MRI, SPECT)” value in data set [1] was “selectively increased vascular permeability in tumoral/peritumoral areas; also recorded: vascular permeability was increased”. Moreover, the “TNF Infusion reaction Grade 1-2 (number of courses)” value in data set [2] is on record as “nine”.
